{"source": "ChEMBL document CHEMBL6153042", "about": "“Glycoconjugates of adefovir and tenofovir as asialoglycoprotein-mediated Anti-HBV prodrugs with enhanced liver targeting” (Eur J Med Chem, 2025)", "key": {"[1]": {"assay": "Toxicity in Kunming mouse assessed as effect on heart size at 100 to 200 mg/kg, iv once daily for 5 days", "type": "organism-based", "conditions": "in vivo, 120 h, dose 100-200 mg/kg, time 5 day; call rule not given here"}, "[2]": {"assay": "Toxicity in Kunming mouse assessed as effect on kidney size at 100 to 200 mg/kg, iv once daily for 5 days", "type": "organism-based", "conditions": "in vivo, 120 h, dose 100-200 mg/kg, time 5 day"}, "[3]": {"assay": "Toxicity in Kunming mouse assessed as effect on heart weight at 100 to 200 mg/kg, iv once daily for 5 days", "type": "organism-based", "conditions": "in vivo, 120 h, dose 100-200 mg/kg, time 5 day"}, "[4]": {"assay": "Toxicity in Kunming mouse assessed as effect on kidney colour at 100 to 200 mg/kg, iv once daily for 5 days", "type": "organism-based", "conditions": "in vivo, 120 h, dose 100-200 mg/kg, time 5 day"}, "[5]": {"assay": "Drug uptake in Sprague-Dawley rat liver at 10 mg/kg, iv measured after 1 to 6 hrs by LC-MS/MS analysis", "type": "ADME, organism-based", "conditions": "in vivo, time 1-6 hrs"}, "[6]": {"assay": "Toxicity in Kunming mouse assessed as effect on liver weight at 100 to 200 mg/kg, iv once daily for 5 days", "type": "organism-based", "conditions": "in vivo, 120 h, dose 100-200 mg/kg, time 5 day"}, "[7]": {"assay": "Toxicity in Kunming mouse assessed as histopathological changes in heart at 200 mg/kg, iv once daily for 5 days by H and E staining based analysis", "type": "organism-based", "conditions": "in vivo, 120 h, time 5 day"}, "[8]": {"assay": "Selectivity index, the ratio of CC50 for human HepG2.2.15 cells to EC50 for antiviral activity against HBV in human HepG2.2.15 cells assessed as inhibition of HBV DNA replication", "type": "toxicity, cell-based", "conditions": "read-out: Ratio CC50/EC50"}, "[9]": {"assay": "Toxicity in Kunming mouse assessed as maximum tolerated dose administered intravenously as once daily dose for 5 days", "conditions": "in vivo, route iv, time 5 day"}, "[10]": {"assay": "Stability of compound in PBS buffer assessed as half-life by high-performance liquid chromatography", "type": "physicochemical"}, "Hepatitis B virus": {"system": "Hepatitis B virus", "assay": "Antiviral activity against Hepatitis B virus infected in human HepG2.2.15 cells assessed as inhibition of HBV DNA replication incubated for 10 day by qPCR analysis", "type": "functional, organism-based", "conditions": "HepG2.2.15, 240 h"}, "[11]": {"assay": "Toxicity in Kunming mouse assessed as effect on kidney weight at 100 to 200 mg/kg, iv once daily for 5 days", "type": "organism-based", "conditions": "in vivo, 120 h, dose 100-200 mg/kg, time 5 day"}, "[12]": {"assay": "Toxicity in Kunming mouse assessed as effect on body weight at 100 to 200 mg/kg, iv administered once daily for 5 days", "type": "organism-based", "conditions": "in vivo, 120 h, dose 100-200 mg/kg, time 5 day"}, "[13]": {"assay": "Toxicity in Kunming mouse assessed as effect on heart colour at 100 to 200 mg/kg, iv once daily for 5 days", "type": "organism-based", "conditions": "in vivo, 120 h, dose 100-200 mg/kg, time 5 day"}, "[14]": {"assay": "Toxicity in Kunming mouse assessed as effect on liver size at 100 to 200 mg/kg, iv once daily for 5 days", "type": "organism-based", "conditions": "in vivo, 120 h, dose 100-200 mg/kg, time 5 day"}, "[15]": {"assay": "Cytotoxicity against human HepG2.2.15 cells assessed as inhibition of cell proliferation by CCK8 assay", "type": "toxicity, cell-based, HepG2 2.2.15"}, "LX-2 [16]": {"system": "LX-2", "assay": "(§1) Cytotoxicity against human LX2 cells assessed as cell growth inhibition at 10 uM incubated for 48 hrs by CCK8 assay relative to control", "type": "toxicity, cell-based", "conditions": "lx-2, 48 h, 10 µM"}, "LX-2 [17]": {"system": "LX-2", "assay": "Cytotoxicity against human LX2 cells at 5 uM incubated for 48 hrs by CCK8 assay", "type": "toxicity, cell-based", "conditions": "lx-2, 48 h"}, "[18]": {"assay": "Toxicity in Kunming mouse assessed as histopathological changes in kidney at 200 mg/kg, iv once daily for 5 days by H and E staining based analysis", "type": "organism-based", "conditions": "in vivo, 120 h, time 5 day"}, "[19]": {"assay": "Toxicity in Kunming mouse assessed as effect on liver colour at 100 to 200 mg/kg, iv once daily for 5 days", "type": "organism-based", "conditions": "in vivo, 120 h, dose 100-200 mg/kg, time 5 day"}, "[20]": {"assay": "Drug metabolism in plasma of Sprague-Dawley rat assessed as (1-(36-(((2R,3R,4S,5R,6R)-3-acetamido-4,5-dihydroxy-6-(hydroxymethyl)tetrahydro-2H-pyran-2-yl)oxy)-21,21-bis((3-((3-(5-(((2R,3R,4S,5R,6R)-3-acetamido-4,5-dihydroxy-6-(hydroxymethyl)tetrahydro-2H-pyran-2-yl)oxy)pentanamido)propyl)amino)-3-oxopropoxy)methyl)-16,19,26,32-tetraoxo-3,6,9,12,23-pentaoxa-15,20,27,31-tetraazahexatriacontyl)-1H-1,2,3-triazol-4-yl)methyl hydrogen ((2-(6-amino-9H-purin-9-yl)ethoxy)methyl)phosphonate formation measured at 2.1 mins by HPLC analysis", "type": "ADME, cell-free", "conditions": "0.035 h"}, "[21]": {"assay": "Toxicity in Kunming mouse assessed as histopathological changes in liver at 200 mg/kg, iv once daily for 5 days by H and E staining based analysis", "type": "organism-based", "conditions": "in vivo, 120 h, time 5 day"}, "[22]": {"assay": "Prodrug release in human HepG2 cells assessed as tenofovir release measured over 1 hrs by HPLC analysis", "type": "ADME, cell-based", "conditions": "hepg2, 1 h"}, "[23]": {"assay": "Prodrug release in human HepG2 cells assessed as adefovir release measured over 1 hrs by HPLC analysis", "type": "ADME, cell-based", "conditions": "hepg2, 1 h"}, "[24]": {"assay": "Prodrug release in human HepG2 cells assessed as tenofovir release by mass spectrometric analysis", "type": "ADME, cell-based"}, "[25]": {"assay": "Prodrug release in human HepG2 cells assessed as adefovir release by mass spectrometric analysis", "type": "ADME, cell-based"}, "[26]": {"assay": "Drug metabolism in plasma of Sprague-Dawley rat assessed as hydrolyzed metabolite formation measured after 5 hrs by HPLC analysis", "type": "ADME, cell-free"}, "[27]": {"assay": "Drug uptake in Sprague-Dawley rat kidney at 10 mg/kg, iv measured after 1 to 6 hrs by LC-MS/MS analysis", "type": "ADME, organism-based", "conditions": "in vivo, time 1-6 hrs"}, "[28]": {"assay": "as §1", "type": "toxicity, cell-based, LX-2", "conditions": "LX2 cells, read-out: GI"}}}
{"smiles": "CC(=O)N[C@H]1[C@H](OCCCCC(=O)NCCCNC(=O)CCOCC(COCCC(=O)NCCCNC(=O)CCCCO[C@@H]2O[C@H](CO)[C@H](O)[C@@H](O)[C@H]2NC(C)=O)(COCCC(=O)NCCCNC(=O)CCCCO[C@@H]2O[C@H](CO)[C@H](O)[C@@H](O)[C@H]2NC(C)=O)NC(=O)CCC(=O)NCCOCCOCCOCCOCCn2cc(COP(=O)(COCCn3cnc4c(N)ncnc43)OCOC(=O)C(C)(C)C)nn2)O[C@H](CO)[C@H](O)[C@H]1O", "note": "(some centres undefined)", "values": [{"measurement": "Activity", "setting": "[1]", "result": "Non-toxic"}, {"measurement": "Activity", "setting": "[2]", "result": "Non-toxic"}, {"measurement": "Activity", "setting": "[3]", "result": "Non-toxic"}, {"measurement": "Activity", "setting": "[4]", "result": "Non-toxic"}, {"measurement": "Drug uptake", "setting": "[5]", "result": "Active"}, {"measurement": "Activity", "setting": "[6]", "result": "Non-toxic"}, {"measurement": "Activity", "setting": "[7]", "result": "Non-toxic"}, {"measurement": "selectivity ratio", "setting": "[8]", "result": "> 1020"}, {"measurement": "MTD at 120 h", "setting": "[9]", "result": "~200", "unit": "mg/kg"}, {"measurement": "half-life", "setting": "[10]", "result": "> 24", "unit": "h"}, {"measurement": "EC50", "setting": "Hepatitis B virus", "result": 98.3, "unit": "nM"}, {"measurement": "Activity", "setting": "[11]", "result": "Non-toxic"}, {"measurement": "Activity", "setting": "[12]", "result": "Non-toxic"}, {"measurement": "Activity", "setting": "[13]", "result": "Non-toxic"}, {"measurement": "Activity", "setting": "[14]", "result": "Non-toxic"}, {"measurement": "CC50", "setting": "[15]", "result": "> 100000", "unit": "nM"}, {"measurement": "Activity", "setting": "LX-2 [16]", "result": "Toxic"}, {"measurement": "Activity", "setting": "LX-2 [17]", "result": "Toxic"}, {"measurement": "Activity", "setting": "[18]", "result": "Non-toxic"}, {"measurement": "Activity", "setting": "[19]", "result": "Non-toxic"}, {"measurement": "Drug metabolism", "setting": "[20]", "result": "metabolite_detected"}, {"measurement": "Activity", "setting": "[21]", "result": "Non-toxic"}]}
{"smiles": "CC(=O)N[C@H]1[C@H](OCCCCC(=O)NCCCNC(=O)CCOCC(COCCC(=O)NCCCNC(=O)CCCCO[C@@H]2O[C@H](CO)[C@H](O)[C@@H](O)[C@H]2NC(C)=O)(COCCC(=O)NCCCNC(=O)CCCCO[C@@H]2O[C@H](CO)[C@H](O)[C@@H](O)[C@H]2NC(C)=O)NC(=O)CCC(=O)NCCOCCOCCOCCOCCn2cc(COP(=O)(O)CO[C@H](C)Cn3cnc4c(N)ncnc43)nn2)O[C@H](CO)[C@H](O)[C@H]1O", "note": "(racemic)", "values": [{"measurement": "Drug metabolism", "setting": "[22]", "result": "metabolite_detected"}, {"measurement": "Drug metabolism", "setting": "[23]", "result": "metabolite_detected"}, {"measurement": "Drug metabolism", "setting": "[24]", "result": "metabolite_detected"}, {"measurement": "Drug metabolism", "setting": "[25]", "result": "metabolite_detected"}, {"measurement": "Drug metabolism", "setting": "[26]", "result": "metabolite_notdetected"}]}
{"smiles": "CC(C)(C)C(=O)OCOP(=O)(COCCn1cnc2c(N)ncnc21)OCOC(=O)C(C)(C)C", "note": "[ADEFOVIR DIPIVOXIL]", "values": [{"measurement": "Drug uptake", "setting": "[27]", "result": "Active"}, {"measurement": "selectivity ratio", "setting": "[8]", "result": 44.6}, {"measurement": "EC50", "setting": "Hepatitis B virus", "result": 240, "unit": "nM"}, {"measurement": "CC50", "setting": "[15]", "result": 10700, "unit": "nM"}, {"measurement": "inhibition at 48 h, 10 µM", "setting": "[28]", "result": "~30", "unit": "%"}, {"measurement": "Activity", "setting": "LX-2 [17]", "result": "Non-toxic"}]}
{"smiles": "CC(C)OC(=O)OCOP(=O)(CO[C@H](C)Cn1cnc2c(N)ncnc21)OCOC(=O)OC(C)C.O=C(O)/C=C/C(=O)O", "note": "[TENOFOVIR DISOPROXIL FUMARATE]", "values": [{"measurement": "Drug uptake", "setting": "[27]", "result": "Active"}, {"measurement": "selectivity ratio", "setting": "[8]", "result": 43.7}, {"measurement": "EC50", "setting": "Hepatitis B virus", "result": 188, "unit": "nM"}, {"measurement": "CC50", "setting": "[15]", "result": 8200, "unit": "nM"}, {"measurement": "inhibition at 48 h, 10 µM", "setting": "[28]", "result": "~30", "unit": "%"}, {"measurement": "Activity", "setting": "LX-2 [17]", "result": "Non-toxic"}]}
